Among the data in patent US20140120165A1, “CORTICOSTEROID PARTICLES AND METHOD OF PRODUCTION” (priority 2010, published 2014) are Cmax, Tmax and water solubility values, retold here.

For series [1] the following is noted: rat.
Experimental: Seven budesonide formulations were assessed for the ability to cross the lung by perfusion on an isolated lung perfusion system. LC-MS/MS was utilized to measure budesonide concentration in perfusate samples collected for up to approximately 123 minutes after intratracheal (IT) administration of the representative formulations to male Sprague-Dawley rats. The mass of budesonide remaining in the lung was also measured at the terminus of the procedure.
After release from quarantine, the study animals were euthanized with an IP injection of a barbiturate (minimum 150 mg/kg pentobarbital). The trachea, pulmonary artery and left ventricle were cannulated and the heart/lung bloc was removed from the thoracic cavity. The heart/lung bloc was placed in an artificial thoracic cavity (Hugo Sachs Electronik-Harvard). The budesonide suspension test formulations were administered by intratracheal installation at a volume of 40-100 μL. Following test formulation delivery, fractionated single pass perfusate samples were collected over a 2 hour period. The concentration of budesonide in the perfusate and lung tissue was determined by Liquid Chromatography-Mass Spectrometry (LC-MS/MS).
The test formulations contained in single unit dose vials (1.5 ml or 2 ml) were inverted several times before being transferred to a secondary container. Bulk formulations were diluted in saline and were gently swirled, and then aliquots of 40-100 μl were drawn up in a syringe and installed IT into the isolated perfused lung model directly through a cannula placed at the top of the trachea.
The Study animals were euthanized with an overdose of pentobarbital. During necropsy, the trachea and lungs were excised from the rat and placed on the IPL system cannula. The lungs were ventilated with room air at a rate of 60 breaths per minute by negative pressure ventilation. Chamber pressures were adjusted to reach target goals of a tidal volume of 2.5 ml and a peak expiratory flow of 12 ml/sec.
Single pass perfusate samples were collected over a 60-120 minute period. Perfusate samples were fractionated into 17 samples collected at approximately (min): 0.67; 1.3; 2.7; 4; 6; 8; 10; 12.5; 15; 22; 29; 36; 43; 63; 83; 103; and 123.
Perfusate and lung tissue samples were stored at −80° C. prior to subsequent analysis by LC-MS/MS. During operation of the isolated perfused lung (IPL) system pressure and flow recordings were collected using EMKA (version 2.5) software. […] Data was reduced to 5 minute data points for the purposes of statistical comparisons. Mean and standard error were performed on the perfusate and lung tissue concentrations using Microsoft Excel software. Pharmacokinetic properties were evaluated by WinNonlin software (Version 5.0.1, Pharsight Corporation, Sunnyvale, Calif. 94086).
For series [2] the following is noted: in water at 20° C.; cited from earlier work.

The term Cmax denotes the highest concentration seen after dosing. budesonide [Group-4] yielded a Cmax in series [1] of 146.4 ng/mL.
Broadly, the Tmax is the time at which the peak concentration occurs. As for “budesonide [Group-2, reference compound]”, the Tmax in series [1] is 1.3 min.
Regarding “budesonide [Group-3, reference compound]”, the time of peak concentration (Tmax) in series [1] is given as 1.3 min.
Regarding `ClCCl` [dichloromethane], the water solubility in series [2] is 13 grams/liter.
Consider “budesonide [Group-5, reference compound]”, for which the Tmax in series [1] turned out to be 1.3 min.
With `CCOCC` [diethyl ether], the water solubility in series [2] is given as 69 grams/liter.
As for `CC(=O)CC(C)C` [methyl isobutyl ketone], the water solubility in series [2] is given as 19 grams/liter.
For `CC(=O)OC(C)C` [isopropyl acetate], the water solubility in series [2] was 43 grams/liter.
With “budesonide [Group-1, reference compound]”, in series [1], the peak concentration (Cmax) came out at 104.5 ng/mL and the Tmax stood at 1.3 min.
As for `CCOC(C)=O` [ethyl acetate], the water solubility in series [2] is listed as 83 grams/liter.
